Experimental data reported in patent publication US20260263456A1, “TADALAFIL GASTRIC-SOLUBLE RAPID-RELEASE SOLID DISPERSION, TABLET, AND USE THEREOF” (Shenzhen Hanhui Pharmaceutical Technology Co., Ltd., priority 2023, published 2026).
Converted amounts (≈) assume the structure as drawn.

Tests used:
[1] = Solubility of tadalafil API in various solvents; type: physicochemical; settings: thermodynamic from solid, 25° C. and 60° C.
Description: A suitable amount of tadalafil was weighed and dissolved in various commonly used organic solvents to identify the most appropriate solvents for establishing UV methodology. The solvents utilized for preparing solid dispersions, along with the solubility of tadalafil, the active pharmaceutical ingredient, in different solvents, are presented in Table 4 below.

[2] = Polymer and surfactant screening: solubility of solid dispersions in pH 1.0 and pH 6.8 media; type: physicochemical; settings: API alone, 2 mg/mL, one value across 5 min and 30 min
Protocol: In this implementation example, a micro-scale rotary evaporation method was employed to screen various types of polymers and surfactants, specifically in the context of the active pharmaceutical ingredient (API) ratio of polymer to surfactant.
Acetone was utilized to prepare a stock solution of the active pharmaceutical ingredient at a concentration of 5 mg/mL, a polymer stock solution at 10 mg/mL, and a surfactant stock solution at 10 mg/mL. These solutions were evenly mixed in two identical portions, then centrifuged and dried to create the solid dispersion.
To each sample tube, 1 mL of pH 1.0 and pH 6.8 media was added, and the samples were vortexed at room temperature to ensure complete dispersion. Samples were collected at 5 minutes and 30 minutes, then centrifuged, diluted, and the absorbance was measured to calculate solubility.

## CN1CC(=O)N2[C@H](c3ccc4c(c3)OCO4)c3[nH]c4ccccc4c3C[C@@H]2C1=O [Tadalafil]
[1]; organic solvent or mixture, Acetone
  solubility: 10.2 to 16.9 mg/mL (≈ 26.1 to 43.5 mM)
[1]; organic solvent or mixture, Acetonitrile
  solubility: 16 to 23.9 mg/mL (≈ 41 to 61.5 mM)
[1]; organic solvent or mixture, Anhydrous ethanol
  solubility: < 10.8 mg/mL
[1]; organic solvent or mixture, Dichloromethane
  solubility: < 10.8 mg/mL
[1]; organic solvent or mixture, Tetrahydrofuran
  solubility: 23.8 to 47.6 mg/mL (≈ 61.2 to 122 mM)
[1]; pH 6.8 medium, aqueous buffer, pH 6.8
  solubility: < 8.04 mg/mL
[2]; pH 1.0
  pH 1.0(Solubility mg/mL): 0.002 mg/mL
[2]; pH 6.8
  pH 6.8(Solubility mg/mL): 0.027 mg/mL
